Where two headings read alike, the source gives them in different places.
System: androgen receptor

SMILES | inhibition of the testosterone effect (luciferase expression) (bone, Casodex 50 mg/kg p.o. with testosterone 2 mg/kg s.c.) | luciferase response in kidney (inhibition of testosterone effect) (kidney, Casodex 50 mg/kg p.o. with testosterone 2 mg/kg s.c.) | inhibition of the testosterone effect (luciferase expression) (prostate-seminal vesicles, Casodex 50 mg/kg p.o. with testosterone 2 mg/kg s.c.) | inhibition of the testosterone effect (luciferase expression) (quadriceps, Casodex 50 mg/kg p.o. with testosterone 2 mg/kg s.c.) | luciferase induction over untreated (bone, testosterone 2 mg/kg s.c.) | luciferase response in kidney (testosterone induction) (kidney, testosterone 2 mg/kg s.c.) | luciferase induction over untreated (prostate-seminal vesicles, testosterone 2 mg/kg s.c.) | luciferase induction over untreated (quadriceps, testosterone 2 mg/kg s.c.)
CC(O)(CS(=O)(=O)c1ccc(F)cc1)C(=O)Nc1ccc(C#N)c(C(F)(F)F)c1 (centres unmarked) [bicalutamide] | 86% | No response | 90% | 92% |  |  |  | 
C[C@]12CC[C@H]3[C@@H](CCC4=CC(=O)CC[C@@]43C)[C@@H]1CC[C@@H]2O [testosterone] |  |  |  |  | 3.3 fold | No response | 5.6 fold | 5.8 fold

Reference: US20040068762A1, “Transgenic non-human mammals expressing a reporter nucleic acid under the regulation of androgen response elements” (priority 2002, published 2004)
